Changes are numbered by the printed parent chain. “Also recorded” adds a separate entry of the source.
Assays:
[1] = target: T1, Aurora A kinase and TPX2 (Homo sapiens, UniProt O14965, T288V); test: Kemptide phosphorylation by dephosphorylated Aurora A kinase and TPX2 with increasing PS48 (TPX2 competition); type: biochemical; conditions: 1 μM A122-403 T288V, 100 μM TPX2 1-45, 1 mM kemptide; FIGS. 28A-28B
T1 construct: 1 μM A^122-403 T288V, 100 μM TPX2^1-45 and 1 mM kemptide was used
T1 sequence (O14965 122-403 T288V): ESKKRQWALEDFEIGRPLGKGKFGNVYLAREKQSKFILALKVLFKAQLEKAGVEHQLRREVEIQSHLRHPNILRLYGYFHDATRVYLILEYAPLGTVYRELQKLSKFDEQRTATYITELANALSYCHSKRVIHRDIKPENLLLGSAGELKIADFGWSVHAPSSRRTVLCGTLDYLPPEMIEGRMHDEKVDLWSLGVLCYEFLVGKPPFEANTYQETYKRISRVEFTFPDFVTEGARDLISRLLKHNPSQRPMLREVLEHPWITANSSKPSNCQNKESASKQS
Description: FIGS. 28A-28B is a set of plots showing PS48 binds to the TPX2 binding site of Aurora A kinase and PS48 competes with TPX2 for binding to Aurora A kinase in vitro. FIG. 28A is a plot showing measurements of phosphorylation of kemptide (a peptide substrate for Aurora A kinase) when incubated with dephosphorylated Aurora A kinase and TPX2 and various increasing amounts of PS48. […] In the assays shown, 1 μM A^122-403 T288V, 100 μM TPX2^1-45 and 1 mM kemptide was used.
Aurora A, either phosphorylated/dephosphorylated wild type or mutant protein, was mixed with either AP ([…]) (SEQ ID NO: 5), Kemptide (LRRASLG) (SEQ ID NO: 6), or Lats2 ([…]) (SEQ ID NO: 7), in the absence or presence of 50 μM TPX2 in kinase buffer (20 mM TrisHCl, 200 mM NaCl, 3% [vol/vol] glycerol, 20 mM MgCl2, 1 mM TCEP, pH 7.50). These substrates comprise the consensus sequence for Aurora A ([R/K/N]—R—X—[S/T]-B where B is any hydrophobic residue with the exception of Pro) (Ferrari et al., 2005, Biochem. J., 390(Pt 1):293-302; Ohashi et al., 2006, Oncogene, 25:7691-7702; Sardon et al., 2010, EMBO Reports, 11:977-984). Peptides were ordered through Genscript. For HPLC-based activity assays the following protocol was used. The reaction was initiated with the addition of 5 mM ATP. […]

[2] = target: T2, ATP-binding site of Aurora A kinase (Homo sapiens, UniProt O14965); test: TNP-ATP fluorescence titration of dephosphorylated Aurora A kinase with or without PS48; conditions: FIGS. 24-26
T2 construct: Codon-optimized Aurora A^122-403 in pET28a and untagged λPP in T7-7 plasmid were co-transformed in BL21(DE3) cells; inferred from pET28a and the NiNTA column) (cleaved yes); made in house; host or cells: E. coli BL21(DE3), co-expressed with lambda protein phosphatase
T2 sequence (O14965 122-403): T1 sequence (O14965 122-403 T288V) with V167T
Description: TNP-ATP is excited at a wavelength of 479 nm and fluoresces at 500-600 nm. FIG. 26B is a plot showing an emission spectrum of TNP-ATP. FIG. 26C is a plot showing fluorescence spectroscopy of dephosphorylated Aurora A kinase incubated with varying amounts of TNP-ATP. FIG. 26D is a plot showing fluorescence spectroscopy of dephosphorylated Aurora A kinase and PS48 incubated with varying amounts of TNP-ATP. FIG. 26E is a plot showing fluorescence intensities measured during titration of TNP-ATP in the Aurora A kinase and PS48 sample and Aurora A kinase only sample. The dissociation constant of TNP-ATP binding to Aurora A kinase in the absence and presence of PS48 is shown at the bottom of FIG. 26E.

For `O=C(O)/C=C(/CCc1ccc(Cl)cc1)c1ccccc1` [PS48], which “effect of PS48 on kinase activity of Aurora A incubated with TPX2” value [1] is on record?
The value was “inhibits kinase activity by competing off TPX2 binding; also recorded: disrupting binding of TPX2 to Aurora A kinase”.

What about the “effect of PS48 on the ATP binding site of Aurora A kinase (TNP-ATP binding)” value [2] of the same molecule?
Its value is “does not affect binding of TNP-ATP; also recorded: does not bind to the ATP binding site”.

From patent publication US11266616B2, “Compositions and methods for inhibiting kinase activity” (BRANDEIS UNIVERSITY, priority 2016, dated 2022)
